In PMC8334341 (Acta Pharmacologica Sinica, 2021):

Key:
[1] = molecular target: RBD domain of S protein of SARS-CoV-2 (Severe acute respiratory syndrome coronavirus 2, UniProt P0DTC2); experiment: biochemical; format: binding
ACE2 = conditions: read-out: IC50 (ACE2 inhibitor); cited from earlier work
[2] = molecular target: binding interactions between RBD and ACE2 (Homo sapiens, UniProt Q9BYF1); parameters: species or system SARS-CoV-2
binding interactions between RBD and ACE2, sequence (Q9BYF1 whole entry, looked up): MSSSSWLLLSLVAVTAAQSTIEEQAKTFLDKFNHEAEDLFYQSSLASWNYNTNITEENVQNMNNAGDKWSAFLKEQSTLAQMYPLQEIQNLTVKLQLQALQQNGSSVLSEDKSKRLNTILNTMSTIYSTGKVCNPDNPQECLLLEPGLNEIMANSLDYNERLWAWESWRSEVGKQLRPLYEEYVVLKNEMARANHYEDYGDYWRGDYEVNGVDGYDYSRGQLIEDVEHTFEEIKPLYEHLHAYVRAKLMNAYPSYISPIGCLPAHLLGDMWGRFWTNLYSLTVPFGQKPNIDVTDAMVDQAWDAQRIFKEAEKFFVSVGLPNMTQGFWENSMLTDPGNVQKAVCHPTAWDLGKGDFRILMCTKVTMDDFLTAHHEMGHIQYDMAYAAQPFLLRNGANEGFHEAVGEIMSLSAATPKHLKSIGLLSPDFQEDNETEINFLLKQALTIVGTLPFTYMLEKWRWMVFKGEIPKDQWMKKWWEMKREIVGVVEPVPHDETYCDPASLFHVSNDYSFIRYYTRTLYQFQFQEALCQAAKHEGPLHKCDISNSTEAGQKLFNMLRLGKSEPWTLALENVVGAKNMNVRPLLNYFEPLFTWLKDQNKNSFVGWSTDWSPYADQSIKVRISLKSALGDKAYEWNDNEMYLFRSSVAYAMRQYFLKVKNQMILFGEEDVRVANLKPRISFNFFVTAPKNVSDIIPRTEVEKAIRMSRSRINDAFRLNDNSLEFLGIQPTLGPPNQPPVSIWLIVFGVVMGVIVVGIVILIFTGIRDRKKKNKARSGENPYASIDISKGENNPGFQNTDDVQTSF

SMILES	Kd [1]	IC50 (ACE2)	effect on the binding affinity between RBD and ACE2 [2]
Nc1ncnc2c1ncn2[C@@H]1O[C@H](CO)C[C@H]1O [CDCP, Cordycepin]	20.5 µM		
C=C[C@@H]1C2=CCOC(=O)C2=CO[C@H]1O[C@@H]1O[C@H](CO)[C@@H](O)[C@H](O)[C@H]1O [GTCP, Gentiopicrin]	29.6 µM		
CC(C)C[C@H](N[C@@H](Cc1cncn1Cc1cc(Cl)cc(Cl)c1)C(=O)O)C(=O)O [MLN-4760]		0.00044 µM	negligible effect
